Holding throughout (format): functional
Assay [1] concerns KB. As to the kind of experiment: Growth inhibition of human KB cells at 40 uM after 24 hrs by MTT assay relative to control. Conditions: read-out: GI. Background: Tetrazolium dyes change colour on reduction, which living cells bring about.
Assay [2] concerns KB. As to the kind of experiment: Growth inhibition of human KB cells at 4 uM after 24 hrs by MTT assay relative to control. Conditions: read-out: GI.
Assay [3] has as its system KB. As to the kind of experiment: Growth inhibition of human KB cells at 20 uM after 24 hrs by MTT assay relative to control. Conditions: read-out: GI.
Assay [4] concerns KB. As to the kind of experiment: Growth inhibition of human KB cells at 2 uM after 24 hrs by MTT assay relative to control. To be noted: read-out: GI.
The test system of assay [5] is A549. In words: Growth inhibition of human A549 cells at 40 uM after 24 hrs by MTT assay relative to control. To be noted: A549, 24 h, read-out: GI.
The test system of assay [6] is A549. In words: Growth inhibition of human A549 cells at 20 uM after 24 hrs by MTT assay relative to control. Conditions: A549, 24 h, read-out: GI.
Assay [7] concerns A549. In words: Growth inhibition of human A549 cells at 4 uM after 24 hrs by MTT assay relative to control. Conditions: A549, 24 h, read-out: GI.
For assay [8], the system named is A549. In words: Growth inhibition of human A549 cells at 2 uM after 24 hrs by MTT assay relative to control. Conditions: A549, 24 h, read-out: GI.

Each structure is given as a SMILES string.

As to `CCOP(=O)(OCC)C1C(C#N)=C(N)Oc2ccccc21` (stereo unspecified), the results for the inhibition of growth at 40 µM in the assay with KB [1] and in the assay with A549 [5] were 60.1% and 51%, respectively. The inhibition of growth at 4 µM in the assay on KB [2] is 15.2%; with A549 [7], 6.25%. Also, the inhibition of growth at 20 µM in the assay on KB [3] turned out to be 19.4%; in the assay on A549 [6], 18.4%. For the same molecule, the inhibition of growth at 2 µM in the assay on KB [4] turned out to be 0.12%; in the assay on A549 [8] it was 4.12%.

Take `CC(C)OP(=O)(OC(C)C)C1C(C#N)=C(N)Oc2ccccc21` (stereo unspecified): the inhibition of growth at 40 µM amounted to 9.22% with KB [1] and 5.47% in the assay on A549 [5]. Also, the inhibition of growth at 4 µM with KB [2] stood at 5.21%; with A549 [7], 1.2%. For the same molecule, the figures for the inhibition of growth at 20 µM in the assay on KB [3] and in the assay on A549 [6] were 8.93% and 3.5%, respectively. Besides, the values for the inhibition of growth at 2 µM in the assay on KB [4] and in the assay with A549 [8] were 2.5% and 0.82%, respectively.

For `CCCCOP(=O)(OCCCC)C1C(C#N)=C(N)Oc2ccccc21` (stereo unspecified), the inhibition of growth at 40 µM was determined as 40.4% in the assay on KB [1] and 30.2% with A549 [5]. For the same molecule, the figures for the inhibition of growth at 4 µM in the assay with KB [2] and in the assay on A549 [7] were 6.8% and 7.82%, respectively. The inhibition of growth at 20 µM in the assay with KB [3] is 17.6%; in the assay with A549 [6], 21.7%. In addition, the inhibition of growth at 2 µM came out at 6.45% in the assay on KB [4] and 3.51% in the assay with A549 [8].

As to `CCOP(=O)(OCC)C1C(C#N)=C(N)Oc2ccc(Br)cc21` (stereo unspecified), the figures for the inhibition of growth at 40 µM with KB [1] and with A549 [5] were 81.8% and 60.8%, respectively. Besides, the inhibition of growth at 4 µM in the assay with KB [2] came out at 10%; with A549 [7] it was 9.05%. The inhibition of growth at 20 µM was 12% in the assay on KB [3] and 20.3% with A549 [6]. Further, the inhibition of growth at 2 µM in the assay with KB [4] worked out at 6.8%; with A549 [8], 0.52%.

Take `CC(C)OP(=O)(OC(C)C)C1C(C#N)=C(N)Oc2ccc(Br)cc21` (stereo unspecified): the inhibition of growth at 40 µM with KB [1] was determined as 25.4%; with A549 [5], 12.5%. For the same molecule, the inhibition of growth at 4 µM is 15% with KB [2] and 1.6% in the assay with A549 [7]. The inhibition of growth at 20 µM in the assay on KB [3] is 20.3%; in the assay on A549 [6], 10.5%. Also, the inhibition of growth at 2 µM was 9.45% in the assay on KB [4] and 0.32% in the assay on A549 [8].

With `CCCCOP(=O)(OCCCC)C1C(C#N)=C(N)Oc2ccc(Br)cc21` (stereo unspecified), the inhibition of growth at 40 µM was found to be 45.2% in the assay with KB [1] and 26.7% with A549 [5]. Besides, the values for the inhibition of growth at 4 µM in the assay on KB [2] and with A549 [7] were 10.3% and 8.94%, respectively. In addition, the inhibition of growth at 20 µM with KB [3] came out at 11.5%; in the assay on A549 [6] it was 17.5%. The inhibition of growth at 2 µM in the assay with KB [4] was 9.5%; in the assay with A549 [8] it was 0.52%.

As to `CCOP(=O)(OCC)C1C(C#N)=C(N)Oc2ccc([N+](=O)[O-])cc21` (stereo unspecified), the inhibition of growth at 40 µM in the assay with KB [1] is 8.29%; in the assay on A549 [5], 3.9%. Also, the inhibition of growth at 4 µM in the assay with KB [2] stood at 6.08%; in the assay with A549 [7] it was 2.89%. The inhibition of growth at 20 µM with KB [3] was determined as 6.18%; in the assay on A549 [6], 3.1%. Also, the inhibition of growth at 2 µM in the assay with KB [4] came to 4.5%; with A549 [8], 0.33%.

For the molecule `CC(C)OP(=O)(OC(C)C)C1C(C#N)=C(N)Oc2ccc([N+](=O)[O-])cc21` (stereo unspecified), the inhibition of growth at 40 µM with KB [1] is 23.3%; in the assay with A549 [5], 26.9%. Further, the inhibition of growth at 4 µM in the assay with KB [2] was 8.5%; in the assay on A549 [7], 6.25%. For the same molecule, the results for the inhibition of growth at 20 µM in the assay on KB [3] and with A549 [6] were 16.2% and 16.8%, respectively. The inhibition of growth at 2 µM with KB [4] stood at 6.07%; in the assay with A549 [8], 2.5%.

For the molecule `CCCCOP(=O)(OCCCC)C1C(C#N)=C(N)Oc2ccc([N+](=O)[O-])cc21` (stereo unspecified), the inhibition of growth at 40 µM worked out at 33.8% in the assay with KB [1] and 15.8% in the assay on A549 [5]. Further, the figures for the inhibition of growth at 4 µM in the assay with KB [2] and with A549 [7] were 6% and 8.21%, respectively. Also, the inhibition of growth at 20 µM was 14.5% in the assay on KB [3] and 7.94% in the assay on A549 [6]. Also, the inhibition of growth at 2 µM in the assay with KB [4] was determined as 0.58%; in the assay with A549 [8] it was 6.3%.

On to `CCOP(=O)(OCC)C1C(C#N)=C(N)Oc2c1cccc2C(C)(C)C` (stereo unspecified), for which the inhibition of growth at 40 µM came out at 27.3% in the assay with KB [1] and 14.9% in the assay with A549 [5]. Further, the inhibition of growth at 4 µM in the assay with KB [2] turned out to be 7.4%; in the assay with A549 [7] it was 4.34%. The inhibition of growth at 20 µM with KB [3] amounted to 11.5%; in the assay on A549 [6], 12%. Also, the inhibition of growth at 2 µM with KB [4] amounted to 5.65%; in the assay with A549 [8], 3.72%.

Regarding `CC(C)OP(=O)(OC(C)C)C1C(C#N)=C(N)Oc2c1cccc2C(C)(C)C` (stereo unspecified), the inhibition of growth at 40 µM was found to be 20.6% in the assay with KB [1] and 14.9% with A549 [5]. Besides, the values for the inhibition of growth at 4 µM with KB [2] and with A549 [7] were 6.5% and 8.23%, respectively. Further, the inhibition of growth at 20 µM with KB [3] was 12.5%; with A549 [6], 13.9%. In addition, the values for the inhibition of growth at 2 µM in the assay on KB [4] and in the assay with A549 [8] were 5.5% and 3.1%, respectively.

`CCCCOP(=O)(OCCCC)C1C(C#N)=C(N)Oc2c1cccc2C(C)(C)C` (stereo unspecified): the inhibition of growth at 40 µM with KB [1] is 19.8%; in the assay with A549 [5], 13.7%. For the same molecule, the figures for the inhibition of growth at 4 µM with KB [2] and in the assay on A549 [7] were 13.9% and 10.5%, respectively. The inhibition of growth at 20 µM was 14.5% in the assay with KB [3] and 11.2% in the assay on A549 [6]. Also, the values for the inhibition of growth at 2 µM in the assay with KB [4] and with A549 [8] were 11.2% and 9.5%, respectively.

For the origin of these results see ChEMBL document CHEMBL3124753, “Synthesis of 2-amino-3-cyano-4H-chromen-4-ylphosphonates and their anticancer properties” (2014).
